Measured values reported in BigSolDB 2.1.
Where a SMILES comes first, the peptide text is derived from it.

COC(=O)[C@H](Cc1ccccc1)NC(=O)[C@@H](N)CC(=O)O (H-Asp-Phe-OMe)
solubility (mole fraction)
Details	in ethanol	in methanol	in water
278.15 K	3.16e-05	0.000532	0.000338
283.15 K	4.53e-05	0.000593	0.000408
288.15 K	6.19e-05	0.000665	0.000483
293.15 K	8.48e-05	0.00074	0.000581
298.15 K	0.000113	0.000832	0.000701
303.15 K	0.000144	0.000939	0.000836
308.15 K	0.000187	0.00107	0.00102
313.15 K	0.000236	0.0012	0.00123
318.15 K	0.000291	0.00136	0.0015
323.15 K	0.000347	0.00155	0.00182
328.15 K	0.000418	0.00175	0.00224
333.15 K	0.000493	0.002	0.00274
